According to patent US8933089B2, “HIV inhibiting 5-amido substituted pyrimidines” (Janssen R & D Ireland, priority 2006, dated 2015):

Legend:
HIV strain L100I = test: Cellular anti-HIV assay in MT4 LTR-EGFP cells, mutant L100I; format: cell-based, HIV-1; settings: Human immunodeficiency virus 1, read-out: L100I pEC50 (converted)
Description: (§1) Because of the increasing emergence of drug resistant HIV strains, the present compounds were tested for their potency against clinically isolated HIV strains harbouring several mutations. These mutations are associated with resistance to reverse transcriptase inhibitors and result in viruses that show various degrees of phenotypic cross-resistance to the currently commercially available drugs such as for instance AZT and delavirdine.
(§2) The antiviral activity of the compound of the present invention has been evaluated in the presence of wild type HIV and HIV mutants bearing mutations at the reverse transcriptase gene. The activity of the compounds is evaluated using a cellular assay which was performed according to the following procedure.
(§3) The human T-cell line MT4 is engineered with Green Fluorescent Protein (GFP) and an HIV-specific promoter, HIV-1 long terminal repeat (LTR). This cell line is designated MT4 LTR-EGFP, and can be used for the in vitro evaluation of anti-HIV activity of investigational compounds. In HIV-1 infected cells, the Tat protein is produced which upregulates the LTR promotor and finally leads to stimulation of the GFP reporter production, allowing to measure ongoing HIV-infection fluorometrically. Analogously, MT4 cells are engineered with GFP and the constitutional cytomegalovirus (CMV) promotor. This cell line is designated MT4 CMV-EGFP, and can be used for the in vitro evaluation of cytotoxicity of investigational compounds. In this cell line, GFP levels are comparably to those of infected MT4 LTR-EGFP cells. Cytotoxic investigational compounds reduce GFP levels of mock-infected MT4 CMV-EGFP cells.
(§4) Effective concentration values such as 50% effective concentration (EC50) can be determined and are usually expressed in μM. An EC50 value is defined as the concentration of test compound that reduces the fluorescence of HIV-infected cells by 50%. The 50% cytotoxic concentration (CC50 in μM) is defined as the concentration of test compound that reduces fluorescence of the mock-infected cells by 50%. The ratio of CC50 to EC50 is defined as the selectivity index (SI) and is an indication of the selectivity of the anti-HIV activity of the inhibitor. The ultimate monitoring of HIV-1 infection and cytotoxicity is done using a scanning microscope. Image analysis allows very sensitive detection of viral infection. Measurements are done before cell necrosis, which usually takes place about five days after infection, in particular measurements are performed three days after infection.
(§5) The columns IIIB, L100I, etc. in the table list the pEC50 values against various strains IIIB, L100I, etc.

HIV strain K103N = test: Cellular anti-HIV assay in MT4 LTR-EGFP cells, mutant K103N; format: cell-based, HIV-1; settings: Human immunodeficiency virus 1, read-out: K103N pEC50 (converted)
Description: as §1, §2, §3, §4, §5

HIV strain Y181C = test: Cellular anti-HIV assay in MT4 LTR-EGFP cells, mutant Y181C; format: cell-based, HIV-1; settings: Human immunodeficiency virus 1, read-out: Y181C pEC50 (converted)
Description: as §1, §2, §3, §4, §5

HIV strain K103N + Y181C = test: Cellular anti-HIV assay in MT4 LTR-EGFP cells, mutant K103N + Y181C; format: cell-based, HIV-1; settings: Human immunodeficiency virus 1, 72 h, read-out: K103N + Y181C pEC50 (converted)
Description: as §1, §2, §3, §4, §5

HIV strain MDR = test: Cellular anti-HIV assay in MT4 LTR-EGFP cells, MDR strain; format: cell-based, HIV-1; settings: Human immunodeficiency virus 1, read-out: MDR pEC50 (converted)
Description: as §1, §2, §3, §4, §5
MDR refers to a strain that contains mutations L100I, K103N, Y181C, E138G, V1791, L2214F, V278V/I and A327A/V in HIV reverse transcriptase.

HIV strain Y188L = test: Cellular anti-HIV assay in MT4 LTR-EGFP cells, mutant Y188L; format: cell-based, HIV-1; settings: Human immunodeficiency virus 1, read-out: Y188L pEC50 (converted)
Description: as §1, §2, §3, §4, §5

HIV strain L100I + K103N = test: Cellular anti-HIV assay in MT4 LTR-EGFP cells, mutant L100I + K103N; format: cell-based, HIV-1; settings: Human immunodeficiency virus 1, 72 h, read-out: L100I + K103N pEC50 (converted)
Description: as §1, §2, §3, §4, §5

[1] = tested on: HIV strain IIIB (wild type); test: Cellular anti-HIV assay in MT4 LTR-EGFP cells, strain IIIB (wild type); selectivity index versus cytotoxicity in mock-infected MT4 CMV-EGFP cells; format: cell-based, HIV-1; settings: for EC50: Human immunodeficiency virus 1, 72 h, wild type HIV strain IIIB, MT4 LTR-EGFP cells, fluorescence, three days after infection, read-out: IIIB pEC50 (converted); for IIIB pSi: selectivity index = ratio of CC50 (mock-infected MT4 CMV-EGFP cells) to EC50 (IIIB), given as p value
Description: as §2, §3, §4, §5
Strain IIIB is wild type HIV strain

| SMILES | melting point | EC50 (HIV strain L100I) | EC50 (HIV strain K103N) | EC50 (HIV strain Y181C) | EC50 (HIV strain K103N + Y181C) | EC50 (HIV strain MDR) | EC50 (HIV strain Y188L) | EC50 (HIV strain L100I + K103N) | EC50 [1] | IIIB pSi [1] |
| --- | --- | --- | --- | --- | --- | --- | --- | --- | --- | --- |
| Cc1cc(/C=C/C#N)cc(C)c1Nc1nc(Nc2ccc(C#N)cc2)ncc1C(=O)N1CCOCC1 | > 250 °C | – | – | – | – | – | – | – | – | – |
| COc1ccccc1NC(=O)c1cnc(Nc2ccc(C#N)cc2)nc1Nc1c(C)cc(/C=C/C#N)cc1C | > 250 °C | – | – | – | – | – | – | – | – | – |
| Cc1cc(/C=C/C#N)cc(C)c1Nc1nc(Nc2ccc(C#N)cc2)ncc1C(=O)NCCO [Compound 53] | > 250 °C | 5.01 nM | 6.31 nM | 20 nM | 31.6 nM | 501 nM | 31.6 nM | 25.1 nM | 3.16 nM | >3.90 |
| COCCNC(=O)c1cnc(Nc2ccc(C#N)cc2)nc1Nc1c(C)cc(/C=C/C#N)cc1C [Compound 54] | > 250 °C | 3.98 nM | 2 nM | 10 nM | 12.6 nM | 1000 nM | 10 nM | 15.8 nM | 2.51 nM | >4.00 |
| CCN(CCO)C(=O)c1cnc(Nc2ccc(C#N)cc2)nc1Nc1c(C)cc(/C=C/C#N)cc1C [Compound 55] | > 222 °C | 15.8 nM | 3.98 nM | 20 nM | 100 nM | 2000 nM | 63.1 nM | 79.4 nM | 1 nM | 4.00 |
| CONC(=O)c1cnc(Nc2ccc(C#N)cc2)nc1Oc1c(C)cc(/C=C/C#N)cc1C [Compound 62] | – | 5.01 nM | 2.51 nM | 20 nM | 31.6 nM | 3160 nM | 39.8 nM | 39.8 nM | 1.58 nM | 4.00 |
